From patent US7056910B2, “1,4,5.6-tetrahydroimidazo[4,5-d]diazepine derivatives or salts thereof” (Astellas Pharma Inc., priority 2000, dated 2006)
Counter-ions that a name gives are not always drawn.

Columns and labels:
[1] = molecular target: T1, arginine vasopressin V1A receptor (Rattus norvegicus, UniProt P30560); experiment: V1A receptor binding assay ([3H]-vasopressin, rat hepatic membrane specimen); conditions: [3H]-vasopressin 0.5 nM, 25° C., 60 minutes, read-out: Binding activity against arginine vasopressin V1A receptor (pki) (converted)
T1 construct: A rat hepatic membrane specimen was prepared; from tissue; host or cells: rat liver (hepatic membrane specimen)
T1 sequence (P30560 whole entry): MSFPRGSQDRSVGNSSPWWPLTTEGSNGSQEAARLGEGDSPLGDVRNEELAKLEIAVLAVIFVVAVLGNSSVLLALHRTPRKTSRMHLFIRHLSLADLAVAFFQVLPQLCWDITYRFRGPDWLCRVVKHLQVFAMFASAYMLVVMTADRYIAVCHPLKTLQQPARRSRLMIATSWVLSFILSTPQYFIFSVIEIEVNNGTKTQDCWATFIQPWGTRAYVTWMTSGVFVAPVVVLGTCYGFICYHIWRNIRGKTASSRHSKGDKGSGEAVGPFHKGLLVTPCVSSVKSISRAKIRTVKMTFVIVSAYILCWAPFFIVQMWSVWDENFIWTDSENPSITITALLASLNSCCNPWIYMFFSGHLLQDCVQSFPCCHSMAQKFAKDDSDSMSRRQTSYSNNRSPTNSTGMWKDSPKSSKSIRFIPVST
Experimental: (1) V1A Receptor Binding Assay:
A rat hepatic membrane specimen was prepared according to the method of Nakamura, et al. (Journal of Biological Chemistry, Vol. 258, No. 15, pp. 9283–9289, 1983). The hepatic membrane specimen (30 μg) was incubated at 25° C. for 60 minutes in a total amount of 250 μL of a 50 mM TRIS-HCl buffer solution (pH: 7.4) containing 10 mM magnesium chloride and 0.1% bovine serum albumin (BSA), together with [^3H]-Arg-vasopressin (hereinafter simply referred to as “[^3H]-vasopressin”) (0.5 nM, specific activity: 75 Ci/mmol) and a test compound (from 10^−10 to 10^−6 M). Thereafter, liberated [^3H]-vasopressin and receptor-binding [^3H]-vasopressin were separated from each other by using a cell harvester, and the receptor-binding [^3H]-vasopressin was adsorbed on a UniFilter plate, GF/B glass filter. After thoroughly drying, the receptor-binding [^3H]-vasopressin was mixed with a microplate scintillation cocktail, the amount of the receptor-binding [^3H]-vasopressin was measured by using TopCount, and an inhibition rate was calculated according to the following equation. Inhibition rate (%)=[100−(C1−B1)]/(C0−B1)×100 C1: An amount of [^3H]-vasopressin binding to the membrane specimen when treating the receptor membrane specimen in the co-presence of the test compound having a known concentration and [^3H]-vasopressin C0: An amount of [^3H]-vasopressin binding to the membrane specimen when treating the receptor membrane specimen in the presence of [^3H]-vasopressin and in the absence of the test compound B1: An amount of [^3H]-vasopressin binding to the membrane specimen when treating the receptor membrane specimen in the co-presence of [^3H]-vasopressin and an excessive amount of vasopressin (10^−6 M)
According to the foregoing equation, a concentration of the test compound at the inhibition rate of 50% (IC50 value) was calculated, from which was then calculated an affinity of the test compound with the receptor, i.e., a dissociation constant (Ki), according to the following equation. Ki=IC50/(1+[L]/Kd) [L]: A concentration of [^3H]-vasopressin Kd: A dissociation constant of [^3H]-vasopressin against the receptor as determined by the saturation binding assay
A logarithm of the Ki value as calculated according to the foregoing equation was taken, and its negative value was defined as a pKi value.

[2] = molecular target: T2, arginine vasopressin V2 receptor (Rattus norvegicus, UniProt Q00788); experiment: V2 receptor binding assay ([3H]-vasopressin, rat renal medullary membrane specimen); conditions: [3H]-vasopressin 0.5 nM, read-out: Binding activity against arginine vasopressin V2 receptor (pKi) (converted)
T2 construct: A rat renal medullary membrane specimen was prepared; from tissue; host or cells: rat renal medulla (membrane specimen)
T2 sequence (Q00788 whole entry): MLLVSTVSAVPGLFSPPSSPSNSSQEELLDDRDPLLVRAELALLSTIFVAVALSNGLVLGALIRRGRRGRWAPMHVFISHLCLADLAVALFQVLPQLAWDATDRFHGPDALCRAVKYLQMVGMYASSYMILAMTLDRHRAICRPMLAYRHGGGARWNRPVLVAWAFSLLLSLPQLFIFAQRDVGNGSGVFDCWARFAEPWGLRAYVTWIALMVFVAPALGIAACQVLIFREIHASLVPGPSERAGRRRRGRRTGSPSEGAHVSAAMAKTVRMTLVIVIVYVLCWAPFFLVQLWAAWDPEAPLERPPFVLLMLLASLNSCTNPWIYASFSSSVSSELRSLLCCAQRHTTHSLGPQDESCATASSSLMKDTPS
Experimental: (2) V2 Receptor Binding Assay:
A rat renal medullary membrane specimen was prepared according to the method of Cambell, et al. (Journal of Biological Chemistry, Vol. 247, No. 19, pp. 6167–6175, 1972). The rat renal medullary membrane specimen (200 μg) was treated together with [^3H]-vasopressin (0.5 nM, specific activity: 75 Ci/mmol) and a test compound (from 10^−10 to 10^−6 M) in the same manner as in the foregoing V1A receptor binding assay, and the same measurement was carried out to determine a pKi value.

[3] = molecular target: drug metabolizing enzyme CYP3A4 (Homo sapiens, UniProt P08684); experiment: Cytochrome P450 (3A4) inhibition assay (BFC substrate, fluorescence); assay type: in vitro ADME; conditions: BFC 5×10^−5 M substrate, 37° C., 30 minutes; read-out: Inhibition activity against drug metabolizing enzyme CYP3A4 (IC50/μM)
Sequence of drug metabolizing enzyme CYP3A4 (P08684 whole entry): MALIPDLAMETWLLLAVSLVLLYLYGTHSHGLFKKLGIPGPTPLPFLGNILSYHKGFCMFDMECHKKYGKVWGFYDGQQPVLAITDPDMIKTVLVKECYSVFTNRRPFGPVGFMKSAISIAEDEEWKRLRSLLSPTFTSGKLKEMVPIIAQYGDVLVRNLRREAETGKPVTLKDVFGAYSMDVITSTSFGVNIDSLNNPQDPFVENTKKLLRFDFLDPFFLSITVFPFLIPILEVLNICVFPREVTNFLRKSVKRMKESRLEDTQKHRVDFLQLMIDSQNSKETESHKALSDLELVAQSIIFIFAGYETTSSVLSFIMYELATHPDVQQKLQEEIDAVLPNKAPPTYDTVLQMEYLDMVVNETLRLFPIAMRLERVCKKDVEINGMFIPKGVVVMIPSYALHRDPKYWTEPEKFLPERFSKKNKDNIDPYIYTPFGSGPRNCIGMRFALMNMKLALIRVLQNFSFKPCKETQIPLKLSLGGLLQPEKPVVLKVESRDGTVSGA
Experimental: (3) Cytochrome P450 (3A4) Inhibition Assay:
An assay was carried out according to the method of Crespi, et al. (Analytical Biochemistry, 248, 188–190, 1997). Using a 96-well plate, BFC (5×10^−5 M) as a substrate, a test compound (from 9.1×10^−8 to 2×10^−5 M), and an enzyme (10^−8 M) were incubated at 37° C. for 30 minutes in a total amount of 100 μL of a 20 mM phosphoric acid buffer solution (pH: 7.4) containing 1.3 mM NADP+, 3.3 mM glucose-6-pharpahte, 3.3 mM magnesium chloride, and 0.4 Units/mL glucose-6-phosphate dehydrogenase. Thereafter, a 100 mM TRIS buffer solution containing 80% acetonitrile was added to stop the reaction, and a fluorescent intensity (excitation wavelength: 409 nm, fluorescent wavelength: 530 nm) was measured by a fluorescent plate reader. An inhibition rate was calculated according to the following equation, and a concentration of the test compound at the inhibition rate of 50% (IC50 value) was determined. Inhibition rate (%)=[100−(C1−B1)]/(C0−B1)×100 C1: A fluorescent intensity in the presence of the test compound having a known concentration, enzyme and the substrate C0: A fluorescent intensity in the presence of enzyme and the substrate and in the absence of the test compound B1: A fluorescent intensity of the blank well

Ki [1] [nM]	Ki [2] [nM]	IC50 [3] [µM]	melting point [°C]	SMILES
2.82	6.03	7.82	–	O=C(Nc1ccc(C(=O)N2CCc3nc(-c4ccccn4)[nH]c3-c3ccccc32)cc1)c1ccccc1-c1ccccc1 [Example 1, N-{4-[2-(2-Pyridyl)-1,4,5,6-tetrahydroimidazo[4,5-d][1]benzazepine-6-carbonyl]phenyl}biphenyl-2-carboxamide hydrochloride]
–	–	–	240 to 242	O=C(Nc1ccc(C(=O)N2CCc3nc(-c4ccccn4)[nH]c3-c3ccccc32)cc1)c1ccccc1-c1ccccc1 [Example 6, N-{4-[2-(2-Pyridyl)-1,4,5,6-tetrahydroimidazo[4,5-d][1]benzazepine-6-carbonyl]phenyl}biphenyl-2-carboxamide]
3.8	10.5	2.4	–	O=C(Nc1ccc(C(=O)N2CCc3nc(-c4ccccn4)[nH]c3-c3ccccc32)cc1)c1ccccc1-c1ccccc1F [Example 9, 2′-fluoro-N-{4-[2-(2-pyridyl)-1,4,5,6-tetrahydroimidazo[4,5-d][1]benzazepine-6-carbonyl]phenyl}biphenyl-2-carboxamide]
1.95	12.3	2	–	O=C(Nc1ccc(C(=O)N2CCc3nc(-c4ccccn4)[nH]c3-c3ccccc32)nc1)c1ccccc1-c1ccccc1 [Example 11, N-{6-[2-(2-pyridyl)-1,4,5,6-tetrahydroimidazo[4,5-d][1]benzazepine-6-carbonyl]-3-pyridyl}biphenyl-2-carboxamide]
7.59	28.8	5.9	–	O=C(Nc1ccc(C(=O)N2CCc3nc(-c4ccccn4)[nH]c3-c3ccccc32)cc1O)c1ccccc1-c1ccccc1 [Example 12, N-{2-Hydroxy-4-[2-(2-pyridyl)-1,4,5,6-tetrahydroimidazo[4,5-d][1]-benzazepine-6-carbonyl]phenyl}biphenyl-2-carboxamide hydrochloride]

SMILES	Ki [1] [nM]	Ki [2] [nM]	IC50 [3] [µM]	melting point [°C]
O=C(Nc1ccc(C(=O)N2CCc3nc(Cc4ccccc4)[nH]c3-c3ccccc32)cc1)c1ccccc1-c1ccccc1 [Control compound 1, N-[4-(2-Benzyl-1,4,5,6-tetrahydroimidazo[4 5-d] [1]benzazepine-6-carbonyl)phenyl]biphenyl-2-carboxamide hydrochloride, reference compound]	7.76	8.51	0.21	–
O=C(Nc1ccc(C(=O)N2CCc3nc(C4CC4)[nH]c3-c3ccccc32)cc1)c1ccccc1-c1ccccc1 [Control compound 2, N-[4(2-Cyclopropyl-1,4,5,6-tetrahydroimidazo[4,5-d] [1]benzazepine-6-carbonyl)phenyl]biphenyl-2-carboxamide hydrochloride, reference compound]	1.23	1.05	0.43	–
